# Experimental data from patent US8399497B2, “Thiazole derivatives and use thereof” (Merck Serono SA, priority 2005, dated 2013).
# Legend:
# [1] = biological target: Human recombinant GST-PI3Kγ (Homo sapiens, UniProt P48736); test: High throughput PI3K lipid kinase assay (SPA, neomycin-coated beads); type: biochemical
# From the text: a) High Throughput PI3K Lipid Kinase Assay (Binding Assay):
# The efficacy of compounds of the invention in inhibiting the PI3K induced-lipid phosphorylation may be tested in the following binding assay.
# The assay combines the scintillation proximity assay technology (SPA, Amersham) with the capacity of neomycin (a polycationic antibiotic) to bind phospholipids with high affinity and specificity. The Scintillation Proximity Assay is based on the properties of weakly emitting isotopes (such as ^3H, ^125I, ^33P). Coating SPA beads with neomycin allows the detection of phosphorylated lipid substrates after incubation with recombinant PI3K and radioactive ATP in the same well, by capturing the radioactive phospholipids to the SPA beads through their specific binding to neomycin.
# To a 384 wells MTP containing 5 μl of the test compound of Formula (I) (solubilized in 6% DMSO; to yield a concentration of 100, 30, 10, 3, 1, 0.3, 0.1, 0.03, 0.01, 01 μM of the test compound), the following assay components are added. 1) 5 μl (58 ng) of Human recombinant GST-PI3Kγ (in Hepes 40 mM, pH 7.4, DTT 1 mM and ethylenglycol 5%) 2) 10 μl of lipid micelles and 3) 10 μl of Kinase buffer ([^33P]γ-ATP 45 μM/60 nCi, MgCl2 30 mM, DTT 1 mM, β-Glycerophosphate 1 mM, Na3VO4 100 μM, Na Cholate 0.3%, in Hepes 40 mM, pH 7.4). After incubation at room temperature for 180 minutes, with gentle agitation, the reaction is stopped by addition of 60 μl of a solution containing 100 μg of neomycin-coated PVT SPA beads in PBS containing ATP 10 mM and EDTA 5 mM. The assay is further incubated at room temperature for 60 minutes with gentle agitation to allow binding of phospholipids to neomycin-SPA beads. After precipitation of the neomycin-coated PVT SPA beads for 5 minutes at 1500×g, radioactive PtdIns(3)P is quantified by scintillation counting in a Wallac MicroBeta™ plate counter.
# The values indicated in Table II below refer to the IC50 (μM) with respect to PI3Kγ, i.e. the amount necessary to achieve 50% inhibition of said target. Said values show a considerable inhibitory potency of thiazole compounds with regard to PI3Kγ.
# [2] = tested on: PI3K induced Akt/PKB phosphorylation in Raw 264-7 macrophages; test: Cell based ELISA of Akt/PKB phosphorylation in macrophages after Complement 5a stimulation; details: Mus musculus, RAW264.7, 5 min, 50 nM Complement 5a for 5 minutes, read-out: Cell Assay (P-Akt, Elisa) IC50
# Experimental: b) Cell Based ELISA to Monitor PI3K Inhibition:
# The efficacy of compounds of the invention in inhibiting the PI3K induced Akt/PKB phosphorylation may be tested in the following cell based assay.
# Measurement of Akt/PKB phosphorylation in macrophages after stimulation with Complement 5a: Raw 264: Raw 264-7 macrophages (cultured in DMEM-F12 medium containing 10% Fetal Calf serum and antibiotics) are plated at 20,000 cells/well in a 96 MTP 24 h before cell stimulation. Prior to the stimulation with 50 nM of Complement 5a during 5 minutes, Cells are serum starved for 2 h, and pretreated with inhibitors for 20 minutes. After stimulation cells are fixed in 4% formaldehyde for 20 minutes and washed 3 times in PBS containing 1% Triton X-100 (PBS/Triton). Endogenous peroxidase is blocked by a 20 minutes incubation in 0.6% H2O2 and 0.1% Sodium Azide in PBS/Triton and washed 3 times in PBS/Triton. Cells are then blocked by 60 minutes incubation with 10% fetal calf serum in PBS/Triton. Next, phosphorylated Akt/PKB is detected by an overnight incubation at 4° C. with primary antibody (anti phospho Serine 473 Akt IHC, Cell Signaling) diluted 800-fold in PBS/Triton, containing 5% bovine serum albumin (BSA). After 3 washes in PBS/Triton, cells are incubated for 60 minutes with a peroxidase conjugated goat-anti-rabbit secondary antibody (1/400 dilution in PBS/Triton, containing 5% BSA), washed 3 times in PBS/Triton, and 2 times in PBS and further incubated in 100 μl of luminescent substrate reagent solution (Pierce) for 2 minutes, followed by the reading (1 s/well).
# The values indicated in Table III below reflect the percentage of inhibition of AKT phoshorylation as compared to basal level. Said values show a clear effect of the thiazole compounds on the activation of AKT phosphorylation in macrophages.
# Neutrophil recruitment = test: Thioglycollate-induced peritoneal cavity cell recruitment model, neutrophils; type: in vivo, C3H mice; details: 10 mg/kg orally, lavage 4 h after thioglycollate
# Experimental: Thioglycollate-Induced Pertioneal Cavity Cell Recruitment Model
# The in vivo efficacy of compounds of the invention in inhibiting the migration of leukocytes upon intraperitoneal challenge of thioglycollate may be tested with the following assay.
# 8-10 weeks old female C3H mice are fasted during 18 hours. 15 minutes prior the intraperitoneal injection of thioglycollate (1.5%, 40 ml/kg), the mice are treated orally with Thiazoles of Formula (I). Control mice receive CMC/Tween as vehicle (10 ml/kg). The mice are then sacrificed by CO2 inhalation and the peritoneal cavity is washed two times with 5 ml of ice-cold PBS/1 mM EDTA. The lavages are done 4 hours or 48 hours after thioglycollate challenge to evaluate neutrophils or macrophages recruitment, respectively. The white blood cells (neutrophils, lymphocytes or macrophages) are counted using a Beckman Coulter® A ^cT 5diff™. Dexamethasone is used as reference drug.
# Chain of Human recombinant GST-PI3Kγ (P48736 whole entry): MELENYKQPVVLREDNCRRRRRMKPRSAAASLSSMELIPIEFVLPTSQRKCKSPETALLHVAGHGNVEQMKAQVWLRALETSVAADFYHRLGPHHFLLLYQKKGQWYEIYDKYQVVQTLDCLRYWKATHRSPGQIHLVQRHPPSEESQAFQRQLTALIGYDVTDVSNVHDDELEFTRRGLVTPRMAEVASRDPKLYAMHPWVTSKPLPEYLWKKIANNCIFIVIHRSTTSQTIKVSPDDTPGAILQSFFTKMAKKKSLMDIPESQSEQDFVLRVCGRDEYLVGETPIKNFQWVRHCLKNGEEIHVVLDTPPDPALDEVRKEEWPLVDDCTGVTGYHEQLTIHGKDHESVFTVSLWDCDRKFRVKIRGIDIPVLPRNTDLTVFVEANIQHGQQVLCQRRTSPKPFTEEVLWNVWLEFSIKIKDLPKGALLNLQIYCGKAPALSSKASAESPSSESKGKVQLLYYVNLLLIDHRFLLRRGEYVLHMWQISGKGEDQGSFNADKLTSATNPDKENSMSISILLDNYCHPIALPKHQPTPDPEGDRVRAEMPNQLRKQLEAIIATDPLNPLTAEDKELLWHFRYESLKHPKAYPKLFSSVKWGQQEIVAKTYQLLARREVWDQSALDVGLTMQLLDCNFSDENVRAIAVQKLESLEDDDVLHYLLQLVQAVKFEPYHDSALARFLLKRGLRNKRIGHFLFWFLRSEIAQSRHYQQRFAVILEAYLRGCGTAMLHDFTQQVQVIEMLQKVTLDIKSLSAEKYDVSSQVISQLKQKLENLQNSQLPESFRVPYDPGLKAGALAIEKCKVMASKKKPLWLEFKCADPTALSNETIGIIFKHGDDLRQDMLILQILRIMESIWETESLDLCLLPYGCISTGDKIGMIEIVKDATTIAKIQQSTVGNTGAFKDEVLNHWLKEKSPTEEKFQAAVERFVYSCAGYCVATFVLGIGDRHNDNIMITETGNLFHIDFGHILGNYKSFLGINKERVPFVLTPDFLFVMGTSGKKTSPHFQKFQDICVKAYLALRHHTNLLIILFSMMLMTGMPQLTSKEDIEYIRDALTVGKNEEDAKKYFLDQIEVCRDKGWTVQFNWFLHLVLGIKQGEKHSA
smiles,measurement,setting,value
"C#CCNS(=O)(=O)c1ccc(-c2sc(NC(C)=O)nc2C)s1 [Example 1, N-(4-methyl-5-{5-[(prop-2-yn-1-ylamino)sulfonyl]-2-thienyl}-1,3-thiazol-2-yl)acetamide]",IC50,[1],119 nM
same,IC50,[2],660 nM
"CC(=O)Nc1nc(C)c(-c2ccc(S(=O)(=O)N3CCN(C(C)=O)CC3)s2)s1 [Example 2, N-(5-{5-[(4-acetylpiperazin-1-yl)sulfonyl]-2-thienyl}-4-methyl-1,3-thiazol-2-yl)acetamide]",IC50,[1],396 nM
"CC(=O)Nc1nc(C)c(-c2ccc(S(=O)(=O)NC3CCN(C)CC3)s2)s1 [Example 4, N-[4-methyl-5-(5-{[(1-methylpiperidin-4-yl)amino]sulfonyl}-2-thienyl)-1,3-thiazol-2-yl]acetamide]",IC50,[1],298 nM
"CC(=O)Nc1nc(C)c(-c2ccc(S(=O)(=O)N(C)CCN(C)C)s2)s1 [Example 5, N-[5-(5-{[[2-(dimethylamino)ethyl](methyl)amino]sulfonyl}-2-thienyl)-4-methyl-1,3-thiazol-2-yl]acetamide]",IC50,[1],20 nM
"COC(=O)CCCC(=O)Nc1nc(C)c(-c2ccc(S(=O)(=O)NCCN3CCOCC3)s2)s1 [Example 7, methyl 5-{[4-methyl-5-(5-{[(2-morpholin-4-ylethyl)amino]sulfonyl}-2-thienyl)-1,3-thiazol-2-yl]amino}-5-oxopentanoate]",IC50,[1],1200 nM
"CC(=O)Nc1nc(C)c(-c2ccc(S(=O)(=O)N3CCN(C)CC3)s2)s1 [Example 8, N-(4-methyl-5-{5-[(4-methylpiperazin-1-yl)sulfonyl]-2-thienyl}-1,3-thiazol-2-yl)acetamide]",IC50,[1],170 nM
"CC(=O)Nc1nc(C)c(-c2ccc(S(=O)(=O)NCCN3CCOCC3)s2)s1 [Example 9, N-[4-methyl-5-(5-{[(2-morpholin-4-ylethyl)amino]sulfonyl}-2-thienyl)-1,3-thiazol-2-yl]acetamide]",IC50,[1],158 nM
same,IC50,[2],850 nM
same,% inhibition of Neutrophil recruitment at 10 mg/kg after 4 h,Neutrophil recruitment,48%
"CC(=O)Nc1nc(C)c(-c2ccc(S(=O)(=O)NCCCN(C)C)s2)s1 [Example 10, N-{5-[5-({[3-(dimethylamino)propyl]amino}sulfonyl)-2-thienyl]-4-methyl-1,3-thiazol-2-yl}acetamide]",IC50,[1],289 nM
same,IC50,[2],1290 nM
same,% inhibition of Neutrophil recruitment at 10 mg/kg after 4 h,Neutrophil recruitment,58%
"CC(=O)Nc1nc(C)c(-c2ccc(S(=O)(=O)N3CCNCC3)s2)s1 [Example 11, N-{4-methyl-5-[5-(piperazin-1-ylsulfonyl)-2-thienyl]-1,3-thiazol-2-yl}acetamide]",IC50,[1],200 nM
"CNC(=O)CNS(=O)(=O)c1ccc(-c2sc(NC(C)=O)nc2C)s1 [Example 12, N~2~-({5-[2-(acetylamino)-4-methyl-1,3-thiazol-5-yl]-2-thienyl}sulfonyl)-N~1~-methylglycinamide]",IC50,[1],522 nM
"CC(=O)NCCNS(=O)(=O)c1ccc(-c2sc(NC(C)=O)nc2C)s1 [Example 13, N-{5-[5-({[2-(acetylamino)ethyl]amino}sulfonyl)-2-thienyl]-4-methyl-1,3-thiazol-2-yl}acetamide]",IC50,[1],109 nM
"CC(=O)Nc1nc(C)c(-c2ccc(S(=O)(=O)NCC3COC(C)(C)O3)s2)s1 (stereo not drawn) [Example 14, N-{5-[5-({[(2,2-dimethyl-1,3-dioxolan-4-yl)methyl]amino}sulfonyl)-2-thienyl]-4-methyl-1,3-thiazol-2-yl}acetamide]",IC50,[1],198 nM
"COC(=O)[C@H](CO)NS(=O)(=O)c1ccc(-c2sc(NC(C)=O)nc2C)s1 [Example 15, methyl N-({5-[2-(acetylamino)-4-methyl-1,3-thiazol-5-yl]-2-thienyl}sulfonyl)serinate]",IC50,[1],70 nM
"CC(=O)Nc1nc(C)c(-c2ccc(S(=O)(=O)N[C@@H](CO)C(=O)O)s2)s1 [Example 16, N-({5-[2-(acetylamino)-4-methyl-1,3-thiazol-5-yl]-2-thienyl}sulfonyl)serine]",IC50,[1],373 nM
"CC(=O)Nc1nc(C)c(-c2ccc(S(=O)(=O)NCC(O)CO)s2)s1 (stereo not drawn) [Example 17, N-[5-(5-{[(2,3-dihydroxypropyl)amino]sulfonyl}-2-thienyl)-4-methyl-1,3-thiazol-2-yl]acetamide]",IC50,[1],71 nM
"CC(=O)Nc1nc(C)c(-c2ccc(S(=O)(=O)N(C)C)s2)s1 [Example 18, N-(5-{5-[(dimethylamino)sulfonyl]-2-thienyl}-4-methyl-1,3-thiazol-2-yl)acetamide]",IC50,[1],105 nM
"CC(=O)Nc1nc(C)c(-c2csc(S(=O)(=O)NCCN(C)C)c2)s1 [Example 23, N-{5-[5-({[2-(dimethylamino)ethyl]amino}sulfonyl)-3-thienyl]-4-methyl-1,3-thiazol-2-yl}acetamide]",IC50,[1],28 nM
same,IC50,[2],480 nM
"CC(=O)Nc1nc(C)c(-c2csc(S(=O)(=O)NCCN3CCOCC3)c2)s1 [Example 24, N-[4-methyl-5-(5-{[(2-morpholin-4-ylethyl)amino]sulfonyl}-3-thienyl)-1,3-thiazol-2-yl]acetamide]",IC50,[1],16 nM
"CC(=O)Nc1nc(C)c(-c2csc(S(=O)(=O)N3CCNCC3)c2)s1 [Example 26, N-{4-methyl-5-[5-(piperazin-1-ylsulfonyl)-3-thienyl]-1,3-thiazol-2-yl}acetamide]",IC50,[1],67 nM
"CC(=O)Nc1nc(C)c(-c2csc(S(=O)(=O)NC3CCN(C)CC3)c2)s1 [Example 28, N-[4-methyl-5-(5-{[(1-methylpiperidin-4-yl)amino]sulfonyl}-3-thienyl)-1,3-thiazol-2-yl]acetamide]",IC50,[1],78 nM
"CC(=O)Nc1nc(C)c(-c2csc(S(=O)(=O)N3CCN(C)CC3)c2)s1 [Example 29, N-(4-methyl-5-{5-[(4-methylpiperazin-1-yl)sulfonyl]-3-thienyl}-1,3-thiazol-2-yl)acetamide]",IC50,[1],28 nM
same,IC50,[2],460 nM
same,% inhibition of Neutrophil recruitment at 10 mg/kg after 4 h,Neutrophil recruitment,28%
"CC(=O)Nc1nc(C)c(-c2csc(S(=O)(=O)N3CCOCC3)c2)s1 [Example 46, N-{4-methyl-5-[5-(morpholin-4-ylsulfonyl)-3-thienyl]-1,3-thiazol-2-yl}acetamide]",IC50,[1],27 nM
same,IC50,[2],> 30000 nM
same,% inhibition of Neutrophil recruitment at 10 mg/kg after 4 h,Neutrophil recruitment,36%
"CC(=O)Nc1nc(C)c(-c2csc(S(=O)(=O)N3CCCC(O)C3)c2)s1 (stereo not drawn) [Example 48, N-(5-{5-[(3-hydroxypiperidin-1-yl)sulfonyl]-3-thienyl}-4-methyl-1,3-thiazol-2-yl)acetamide]",IC50,[2],150 nM
